Assay [1] deals with Indoleamine 2,3-dioxygenase 1 (Mus musculus, UniProt P28776). Kind of assay: Inhibition of mouse IDO1.
In assay [2] the target is Tryptophan 2,3-dioxygenase (Mus musculus, UniProt P48776). Kind of assay: Inhibition of mouse TDO.
For assay [3], the target named is Tryptophan 2,3-dioxygenase (Homo sapiens, UniProt P48775). Kind of assay: Inhibition of TDO (unknown origin).
For assay [4], the target named is T1, Indoleamine 2,3-dioxygenase 2 (Homo sapiens, UniProt Q6ZQW0).
T1 sequence (Q6ZQW0 whole entry): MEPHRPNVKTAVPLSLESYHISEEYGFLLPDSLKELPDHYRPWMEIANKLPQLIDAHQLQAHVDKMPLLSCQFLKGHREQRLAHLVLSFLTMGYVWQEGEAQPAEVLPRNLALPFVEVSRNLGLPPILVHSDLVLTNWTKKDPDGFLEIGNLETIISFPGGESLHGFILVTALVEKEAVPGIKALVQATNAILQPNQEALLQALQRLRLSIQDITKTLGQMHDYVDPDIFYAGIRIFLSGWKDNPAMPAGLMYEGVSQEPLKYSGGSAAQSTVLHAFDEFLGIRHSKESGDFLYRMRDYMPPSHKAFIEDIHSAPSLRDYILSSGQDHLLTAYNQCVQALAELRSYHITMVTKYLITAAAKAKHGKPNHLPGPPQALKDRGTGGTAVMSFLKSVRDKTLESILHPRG
Description: Inhibition of human IDO2.

The target of assay [5] is Kynurenine 3-monooxygenase (Homo sapiens, UniProt O15229). Kind of assay: Inhibition of human KMO.
The target of assay [6] is T2, Kynurenine 3-monooxygenase (Saccharomyces cerevisiae (strain ATCC 204508 / S288c) (Baker's yeast), UniProt P38169).
T2 sequence (P38169 whole entry): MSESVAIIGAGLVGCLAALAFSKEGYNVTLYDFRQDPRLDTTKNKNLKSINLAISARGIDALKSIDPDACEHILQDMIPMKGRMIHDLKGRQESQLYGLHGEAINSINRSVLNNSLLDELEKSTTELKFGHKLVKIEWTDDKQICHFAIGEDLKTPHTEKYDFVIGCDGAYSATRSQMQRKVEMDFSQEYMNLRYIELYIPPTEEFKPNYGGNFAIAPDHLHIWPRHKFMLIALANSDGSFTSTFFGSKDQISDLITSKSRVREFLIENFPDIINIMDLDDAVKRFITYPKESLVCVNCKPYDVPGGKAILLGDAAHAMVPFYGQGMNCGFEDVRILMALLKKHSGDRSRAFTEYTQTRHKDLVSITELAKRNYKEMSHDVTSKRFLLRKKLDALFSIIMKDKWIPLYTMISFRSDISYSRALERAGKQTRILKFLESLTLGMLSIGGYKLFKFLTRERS
Kind of assay: Inhibition of yeast KMO.

Assay [7] addresses Kynurenine/alpha-aminoadipate aminotransferase, mitochondrial (Rattus norvegicus, UniProt Q64602). Description: Inhibition of rat KAT-2.

Where only a bound is given, the exact number is not on record here.

Sequence of Kynurenine/alpha-aminoadipate aminotransferase, mitochondrial (Q64602 whole entry): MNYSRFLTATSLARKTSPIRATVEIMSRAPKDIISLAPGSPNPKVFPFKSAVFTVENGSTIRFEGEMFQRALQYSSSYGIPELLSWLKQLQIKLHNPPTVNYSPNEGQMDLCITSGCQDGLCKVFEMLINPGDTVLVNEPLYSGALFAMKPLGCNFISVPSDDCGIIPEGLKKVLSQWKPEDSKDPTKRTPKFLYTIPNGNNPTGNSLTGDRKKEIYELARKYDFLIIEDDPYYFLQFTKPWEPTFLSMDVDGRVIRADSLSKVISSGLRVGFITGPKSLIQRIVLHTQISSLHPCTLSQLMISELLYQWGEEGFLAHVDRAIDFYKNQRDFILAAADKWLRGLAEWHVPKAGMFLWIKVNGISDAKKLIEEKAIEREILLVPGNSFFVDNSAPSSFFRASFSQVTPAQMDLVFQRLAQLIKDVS
Sequence of Tryptophan 2,3-dioxygenase (Homo sapiens, UniProt P48775) (P48775 whole entry): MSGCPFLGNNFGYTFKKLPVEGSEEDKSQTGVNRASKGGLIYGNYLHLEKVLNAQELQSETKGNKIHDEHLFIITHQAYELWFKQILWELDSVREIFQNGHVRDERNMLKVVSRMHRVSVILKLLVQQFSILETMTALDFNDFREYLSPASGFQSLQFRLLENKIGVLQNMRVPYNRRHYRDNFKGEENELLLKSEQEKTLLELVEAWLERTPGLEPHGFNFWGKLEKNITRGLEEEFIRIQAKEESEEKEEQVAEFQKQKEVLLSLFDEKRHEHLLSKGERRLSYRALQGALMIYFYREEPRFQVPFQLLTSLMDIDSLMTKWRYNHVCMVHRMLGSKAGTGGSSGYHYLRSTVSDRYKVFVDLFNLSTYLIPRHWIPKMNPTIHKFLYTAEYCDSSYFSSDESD
Sequence of Indoleamine 2,3-dioxygenase 1 (P28776 whole entry): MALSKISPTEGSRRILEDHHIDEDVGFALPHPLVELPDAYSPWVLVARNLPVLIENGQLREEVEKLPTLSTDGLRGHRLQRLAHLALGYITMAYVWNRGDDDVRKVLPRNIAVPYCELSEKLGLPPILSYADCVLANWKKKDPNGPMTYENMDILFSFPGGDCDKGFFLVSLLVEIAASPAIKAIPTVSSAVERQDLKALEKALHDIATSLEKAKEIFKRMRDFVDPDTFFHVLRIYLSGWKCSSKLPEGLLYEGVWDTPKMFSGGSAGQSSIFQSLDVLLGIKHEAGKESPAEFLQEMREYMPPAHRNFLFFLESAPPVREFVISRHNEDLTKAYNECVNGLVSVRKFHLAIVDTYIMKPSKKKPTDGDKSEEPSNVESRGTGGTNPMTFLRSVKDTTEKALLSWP
Sequence of Tryptophan 2,3-dioxygenase (Mus musculus, UniProt P48776) (P48776 whole entry): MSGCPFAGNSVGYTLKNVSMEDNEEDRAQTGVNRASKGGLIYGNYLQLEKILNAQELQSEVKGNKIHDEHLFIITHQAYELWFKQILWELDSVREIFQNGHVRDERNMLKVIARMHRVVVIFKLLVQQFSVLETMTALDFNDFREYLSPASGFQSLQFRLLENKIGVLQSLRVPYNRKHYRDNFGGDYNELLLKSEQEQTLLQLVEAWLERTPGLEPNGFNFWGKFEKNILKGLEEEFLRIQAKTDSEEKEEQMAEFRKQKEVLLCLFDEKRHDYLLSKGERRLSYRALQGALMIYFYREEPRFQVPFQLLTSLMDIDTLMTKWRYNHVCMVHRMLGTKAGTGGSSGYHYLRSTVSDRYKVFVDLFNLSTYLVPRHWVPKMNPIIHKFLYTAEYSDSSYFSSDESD
Sequence of Kynurenine 3-monooxygenase (Homo sapiens, UniProt O15229) (O15229 whole entry): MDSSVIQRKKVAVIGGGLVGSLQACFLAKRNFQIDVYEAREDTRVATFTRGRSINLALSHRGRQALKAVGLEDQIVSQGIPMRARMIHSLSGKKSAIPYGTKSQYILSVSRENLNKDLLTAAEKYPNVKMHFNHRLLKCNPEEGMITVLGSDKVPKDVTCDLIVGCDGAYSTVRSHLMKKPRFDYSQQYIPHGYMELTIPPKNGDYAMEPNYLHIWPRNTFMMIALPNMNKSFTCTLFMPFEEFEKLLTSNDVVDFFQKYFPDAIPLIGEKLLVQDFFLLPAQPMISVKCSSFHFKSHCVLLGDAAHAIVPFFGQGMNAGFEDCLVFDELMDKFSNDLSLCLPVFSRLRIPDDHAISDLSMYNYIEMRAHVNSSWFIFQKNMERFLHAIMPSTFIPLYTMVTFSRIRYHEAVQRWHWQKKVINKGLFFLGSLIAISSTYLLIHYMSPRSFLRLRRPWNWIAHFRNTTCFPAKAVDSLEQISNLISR

As for `Fc1ccc2c(/C=C/c3nnn[nH]3)c[nH]c2c1`, the half-maximal inhibitory concentration (IC50) (usually the point on the concentration scale where inhibition reaches its midpoint) in assay [1] is > 400000 nM; in assay [2], 1960 nM.

For the molecule `Cc1ccc(-c2csc3nnc(SCC(=O)Nc4ccc5c(c4)OCO5)n23)cc1`, the half-inhibitory concentration (IC50) in assay [3] is > 62500 nM; in assay [4] it was > 250000 nM.

Take `Fc1ccc2c(/C=C/c3cccnc3)c[nH]c2c1`: the IC50 in assay [1] is > 80000 nM; in assay [2], 1460 nM.

With `O=C(CC1c2ccccc2-c2cncn21)C1CCCCC1` (stereo unspecified), the IC50 in assay [3] was < 1000 nM.

Take `O=C(O)C1CC1C(=O)c1ccc(Cl)c(Cl)c1` (stereo unspecified): the figures for the IC50 in assay [5] and in assay [6] were 20 nM and 74 nM, respectively.

With `CCS(=O)(=O)c1ccc(C(=O)C[C@H](N)C(=O)O)cc1`, in assay [7], the concentration for half-maximal inhibition (IC50) turned out to be 71000 nM.

Take `O=C1NC(=O)/C(=C/c2cccc(-c3ccc4c5c3CCC(=O)N5CC4)c2)S1`: in assay [7], the half-inhibitory concentration (IC50) turned out to be 13400 nM.

Source of the values: ChEMBL document CHEMBL3627665, “Challenges and Opportunities in the Discovery of New Therapeutics Targeting the Kynurenine Pathway” (J Med Chem, 2015).
